Experimental data from patent US20250360505A1, “MICRO-BIOELECTROCHEMICAL CELL DEVICES AND METHODS OF DETECTING ELECTRON FLOWS” (Washington University, priority 2019, published 2025).

Tested on: Rhodopseudomonas palustris TIE-1 wild-type biofilms
Assay: μ-BEC current density measurement of extracellular electron uptake (EEU) by surface-attached biofilms treated with photosynthetic ETC inhibitors
Format: cell-based
Conditions: working electrode poised at +100 mV vs. SHE, inhibitor concentration not given
[1] = illuminated (phototrophic) conditions

Molecule | Current density (dark conditions) [nA cm^−2] | Current density [1] [nA cm^−2]
N#CC(C#N)=NNc1cccc(Cl)c1 [CCCP, carbonyl cyanide m-chlorophenyl hydrazone] | −18.4±14.0 | 21.2±9.13
antimycin A | −3.46±1.80 | 12.46±1.34
